In patent US11104690B2, “Indazole derivatives useful as inhibitors of diacylglyceride O-acyltransferase 2” (Merck Sharp & Dohme Corp., priority 2016, dated 2021):

These molecules were tested against Human DGAT2 (Homo sapiens (Human), UniProt Q96PD7) (assay: DGAT2 Enzymatic Activity Assay (triolein formation, LC/MS/MS)). Conditions: hDGAT2 Sf-9 membrane prep; 25 μM diolein, 10 μM oleoyl-CoA; room temperature.
Assay type: biochemical
Method: Sf-9 insect cells were maintained in Grace's insect cell culture medium with 10% heated-inactivated fetal bovine serum, 1% Pluronic F-68 and 0.14 μg/m Kanamycine sulfate in Erlenmeyer flasks at 28° C. in a shaker incubator. After infection with untagged hDGAT2 baculovirus at multiplicity of infection (MOI) 0.1 for 48 hours, cells were harvested. Cell pellets were suspended in buffer containing 10 mM Tris-HC (pH 7.5), 1 mM EDTA (pH 8.0), 250 mM sucrose and Complete Protease Inhibitor Cocktail (Roche Diagnostics Corp., Indianapolis, Ill.), and sonicated on ice. Membrane fractions were isolated by ultracentrifugation (100,000×g pellet), resuspended in the same buffer, and frozen (−80° C.) for later use. The protein concentration was determined with the BCA Protein Assay kit (Pierce Biotechnology Inc., Rockford, Ill.). Expression of protein levels was analyzed by immunoblotting with goat polyclonal DGAT2 antibody C-15 and donkey anti-goat IgG HRP (Santa Cruz Biotechnology, Inc., Santa Cruz, Calif.) followed by detection with ECL reagent (GE Healthcare, Piscataway, N.J.).
LC/MS/MS analyses were performed using Thermal Fisher's LX4-TSQ Vantage system. This system consists of an Agilent binary high-performance liquid chromatography (HPLC) pumps and a TSQ Vantage triple quadrupole MS/MS instrument. For each sample, 2 μL samples from the top organic layer of in-plate liquid-liquid extraction were injected onto a Thermo Betabasic C4 column (2.1 mm×20 mm, 5 μm particle size). The samples were then eluted using the following conditions; mobile phase: MeOH/water with 0.1% ammonium format=92/8 (v/v), flow rate: 1 mL/min, temperature: 25 C. Data was acquired in positive mode using a heated electrospray ionization (HESI) interface. The operational parameters for the TSQ Vantage MS/MS instrument were a spray voltage of 3000 V, capillary temperature of 280° C., vaporizer temperature 400° C., shealth gas 60 arbitrary unit, Aux gas 40 arbitrary units, S-lens 113 and collision gas 0.16 Pascals. […] (SRM) chromatograms of triolein (Q1: 902.9>Q3:602.3) and internal standard ([…]) were collected for 40 sec. The peak area was integrated by Xcalibur Quan software. The ratio between the triolein generated in the reaction and spiked in internal standard was used to generate percentage inhibition and IC50 values. Compound percentage inhibition was calculated by the following formula: Inhibition %=1−[(compound response−low control)/(high control−low control)]×100%. Potent compounds were titrated and IC50 were calculated by 4 parameter sigmoidal curve fitting formula.
DGAT2 activity was determined by measuring the amount of enzymatic product triolein (1,2,3-Tri(cis-9-octadecenoyl)glycerol) using the membrane prep mentioned above. The assay was carried out in deep well 384 plates in a final volume of 40 μL at room temperature. The assay mixture contained the following: assay buffer (100 mM Tris.Cl, pH 7.0, 20 mM MgCl2, 5% ethanol), 25 μM of diolein, 10 μM of oleoyl-CoA and 10 ng/μL of DGAT2 membrane.

Chain of Human DGAT2 (Q96PD7 whole entry): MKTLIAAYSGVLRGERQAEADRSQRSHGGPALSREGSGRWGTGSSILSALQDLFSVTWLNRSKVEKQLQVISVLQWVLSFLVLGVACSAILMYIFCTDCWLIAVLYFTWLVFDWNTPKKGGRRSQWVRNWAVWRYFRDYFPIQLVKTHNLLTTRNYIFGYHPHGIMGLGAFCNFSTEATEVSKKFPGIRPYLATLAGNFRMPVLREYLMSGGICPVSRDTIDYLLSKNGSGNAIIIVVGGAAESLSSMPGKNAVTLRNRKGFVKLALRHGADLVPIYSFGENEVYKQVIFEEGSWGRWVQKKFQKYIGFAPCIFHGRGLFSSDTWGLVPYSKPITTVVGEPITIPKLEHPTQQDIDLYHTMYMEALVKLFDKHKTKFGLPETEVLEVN

Structure (SMILES) | IC50 [nM]
CC(C)(C)OC(=O)N1CCS(=O)(=O)CC(NC(=O)c2ccc3c(-c4ccccc4Cl)nn(-c4ccc(F)cc4)c3c2)C1 (racemic) [Example 91, tert-butyl 6-({[3-(2-chlorophenyl)-1-(4-fluorophenyl)-1H-indazol-6-yl]carbonyl}amino)-1,4-thiazepane-4-carboxylate 1,1-dioxide] | 572
O=C(NC1CCS(=O)(=O)C1)c1ccc2c(-c3ccccc3Cl)nn(-c3ccc(F)cc3)c2c1 (single isomer, unassigned) [Example 2-A] | 12
O=C(NCc1cn2cccnc2n1)c1ccc2c(-c3ccccc3Cl)nn(-c3ccc(F)cc3)c2c1 [Example 35, 3-(2-chlorophenyl)-1-(4-fluorophenyl)-N-(imidazo[1,2-a]pyrimidin-2-ylmethyl)-1H-indazole-6-carboxamide] | 415
O=C(N[C@H]1c2ccccc2OC[C@H]1O)c1ccc2c(-c3ccccc3Cl)nn(-c3ccc(F)cc3)c2c1 [Example 71, 3-(2-chlorophenyl)-1-(4-fluorophenyl)-N-[(3S,4S)-3-hydroxy-3,4-dihydro-2H-chromen-4-yl]-1H-indazole-6-carboxamide] | 526
CC1(NC(=O)c2ccc3c(-c4ccccc4Cl)nn(-c4cccnc4)c3c2)CCS(=O)(=O)C1 (racemic) [Example 189, 3-(2-chlorophenyl)-N-(3-methyl-1,1-dioxidotetrahydrothiophen-3-yl)-1-pyridin-3-yl-1H-indazole-6-carboxamide] | 409
N[C@H]1CS(=O)(=O)C[C@@H]1NC(=O)c1ccc2c(-c3ccccc3Cl)nn(-c3ccc(F)cc3)c2c1 [Example 8, N-[(3R,4R)-4-amino-1,1-dioxidotetrahydrothiophen-3-yl]-3-(2-chlorophenyl)-1-(4-fluorophenyl)-1H-indazole-6-carboxamide] | 554
CC1(NC(=O)c2ccc3c(-c4cccc(C#N)c4)nn(-c4ccc(F)cn4)c3c2)CCS(=O)(=O)C1 (single isomer, unassigned) [Example 178-B, 3-(3-cyanophenyl)-1-(5-fluoropyridin-2-yl)-N-(3-methyl-1,1-dioxidotetrahydrothiophen-3-yl)-1H-indazole-6-carboxamide] | 32
CO[C@@H]1C[C@H](NC(=O)c2ccc3c(-c4ccccc4Cl)nn(-c4ccc(F)cc4)c3c2)[C@H](O)[C@H](C)O1 [Example 111, 3-(2-chlorophenyl)-1-(4-fluorophenyl)-N-((2S,3S,4S,6S)-3-hydroxy-6-methoxy-2-methyltetrahydro-2H-pyran-4-yl)-1H-indazole-6-carboxamide] | 194
CC1(NC(=O)c2ccc3c(-c4cncc(F)c4)nn(-c4ccc(F)cc4)c3c2)CCS(=O)(=O)C1 (single isomer, unassigned) [Example 153-A, 1-(4-fluorophenyl)-3-(5-fluoropyridin-3-yl)-N-(3-methyl-1,1-dioxidotetrahydrothiophen-3-yl)-1H-indazole-6-carboxamide] | 90
CC1(NC(=O)c2ccc3c(-c4ccc(Cl)nc4F)nn(-c4ccc(F)cc4)c3c2)CCS(=O)(=O)C1 (single isomer, unassigned) [Example 152-A, 3-(6-chloro-2-fluoropyridin-3-yl)-1-(4-fluorophenyl)-N-(3-methyl-1,1-dioxidotetrahydrothiophen-3-yl)-1H-indazole-6-carboxamide] | 4.5
O=C(NC1CCS(=O)(=O)C1)c1ccc2c(-c3ccccc3Cl)nn(-c3ccc(F)cc3)c2c1 (single isomer, unassigned) [Example 2-B, 3-(2-chlorophenyl)-N-(1,1-dioxidotetrahydrothiophen-3-yl)-1-(4-fluorophenyl)-1H-indazole-6-carboxamide] | 303

Other lines, results leading:

IC50 [nM] | Structure (SMILES)
669 | O=C1CC(NC(=O)c2ccc3c(-c4ccccc4Cl)nn(-c4ccc(F)cc4)c3c2)C(=O)N1 (racemic) [Example 57, 3-(2-chlorophenyl)-N-(2,5-dioxopyrrolidin-3-yl)-1-(4-fluorophenyl)-1H-indazole-6-carboxamide]
10 | N#Cc1cccc(-c2nn(-c3ccc(F)cc3)c3cc(C(=O)NC4CCS(=O)(=O)C4)ccc23)c1 (single isomer, unassigned) [Example 129-A]
36 | O=C(N[C@H](CO)c1ccccc1)c1ccc2c(-c3ccccc3Cl)nn(-c3ccc(F)cc3)c2c1 [Example 82, 3-(2-chlorophenyl)-1-(4-fluorophenyl)-N-[(1S)-2-hydroxy-1-phenylethyl]-1H-indazole-6-carboxamide]
405 | COC(=O)C1(NC(=O)c2ccc3c(-c4ccccc4Cl)nn(-c4ccc(F)cc4)c3c2)CCCC1 [Example 63, methyl 1-({[3-(2-chlorophenyl)-1-(4-fluorophenyl)-1H-indazol-6-yl]carbonyl}amino)cyclopentane-carboxylate]
873 | O=C(NC1COC1)c1ccc2c(-c3ccccc3Cl)nn(-c3ccc(F)cc3)c2c1 [Example 21, 3-(2-chlorophenyl)-1-(4-fluorophenyl)-N-oxetan-3-yl-1H-indazole-6-carboxamide]
889 | CC(NC(=O)c1ccc2c(-c3ccccc3Cl)nn(-c3ccc(F)cc3)c2c1)c1nncn1C (racemic) [Example 36, 3-(2-chlorophenyl)-1-(4-fluorophenyl)-N-[1-(4-methyl-4H-1,2,4-triazol-3-yl)ethyl]-1H-indazole-6-carboxamide]
3.8 | CC(C)[C@@H](CO)NC(=O)c1ccc2c(-c3cc(C#N)ccc3Cl)nn(-c3ccc(F)cc3)c2c1 [Example 123, 3-(2-chloro-5-cyanophenyl)-1-(4-fluorophenyl)-N-[(1S)-1-(hydroxymethyl)-2-methylpropyl]-1H-indazole-6-carboxamide]
34 | C[C@H](NC(=O)c1ccc2c(-c3ccccc3Cl)nn(-c3ccc(F)cc3)c2c1)c1cnc(C(F)(F)F)nc1 [Example 50, 3-(2-chlorophenyl)-1-(4-fluorophenyl)-N-{(1S)-1-[2-(trifluoromethyl)pyrimidin-5-yl]ethyl}-1H-indazole-6-carboxamide]
68 | O=C(N[C@@H]1CCCC[C@@H]1O)c1ccc2c(-c3ccccc3Cl)nn(-c3ccc(F)cc3)c2c1 (racemic) [Example 66]
28 | COc1cc(C#N)cc(-c2nn(-c3ccc(F)cc3)c3cc(C(=O)NC4(C)CCS(=O)(=O)C4)ccc23)c1F (single isomer, unassigned) [Example 161-B, 3-(5-cyano-2-fluoro-3-methoxyphenyl)-1-(4-fluorophenyl)-N-(3-methyl-1,1-dioxidotetrahydrothiophen-3-yl)-1H-indazole-6-carboxamide]
90 | COC(=O)C1(NC(=O)c2ccc3c(-c4ccccc4Cl)nn(-c4ccc(F)cc4)c3c2)CCS(=O)(=O)C1 (racemic) [Example 90, methyl 3-({[3-(2-chlorophenyl)-1-(4-fluorophenyl)-1H-indazol-6-yl]carbonyl}amino)tetra-hydrothiophene-3-carboxylate 1,1-dioxide]
176 | O=C(NCC1(O)CCCCC1)c1ccc2c(-c3ccccc3Cl)nn(-c3ccc(F)cc3)c2c1 [Example 44, 3-(2-chlorophenyl)-1-(4-fluorophenyl)-N-[(1-hydroxycyclohexyl)methyl]-1H-indazole-6-carboxamide]
26 | CC(C)(CO)NC(=O)c1ccc2c(-c3ccccc3Cl)nn(-c3ccc(F)cc3)c2c1 [Example 42, 3-(2-chlorophenyl)-1-(4-fluorophenyl)-N-(2-hydroxy-1,1-dimethylethyl)-1H-indazole-6-carboxamide]
446 | CCS(=O)(=O)CCNC(=O)c1ccc2c(-c3ccccc3Cl)nn(-c3ccc(F)cc3)c2c1 [Example 26, 3-(2-chlorophenyl)-N-[2-(ethylsulfonyl)ethyl]-1-(4-ftuorophenyl)-1H-indazole-6-carboxamide]
357 | O=C(NC1(CO)CCc2ccccc21)c1ccc2c(-c3ccccc3Cl)nn(-c3ccc(F)cc3)c2c1 (racemic) [Example 75, 3-(2-chlorophenyl)-1-(4-fluorophenyl)-N-[1-(hydroxymethyl)-2,3-dihydro-1H-inden-1-yl]-1H-indazole-6-carboxamide]
